# Measured values published in patent US5874432A, “Saccharin derivatives useful as proteolytic enzyme inhibitors and compositions and method of use thereof” (priority 1997, dated 1999).
# Read-outs that look alike come from different tables or passages of the source.
# Molecular target: T1, human leukocyte elastase (Homo sapiens, UniProt P08246)
# T1 sequence (P08246 30-267): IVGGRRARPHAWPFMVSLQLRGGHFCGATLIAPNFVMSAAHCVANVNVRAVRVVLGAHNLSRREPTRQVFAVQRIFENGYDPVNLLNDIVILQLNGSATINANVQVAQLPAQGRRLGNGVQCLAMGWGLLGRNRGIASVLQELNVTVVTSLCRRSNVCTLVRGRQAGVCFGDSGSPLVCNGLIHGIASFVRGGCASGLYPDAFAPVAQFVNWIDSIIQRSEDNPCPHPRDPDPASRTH
# Assay: elastase inhibition using human leukocyte elastase (kon and Ki*)
# Format: biochemical
# Details: for Ki: Ki* = koff/kon, read-out: Elastase Ki *; for kon: read-out: Elastase 10^-3 × kon
# [1] = rate of inactivation of enzyme, value is 10^-3 × kon
# Protocol: Thus, instead of measuring a Ki, a Ki * is calculated which is defined as the ratio of the koff /kon, the rate of reactivation of the enzyme to the rate of inactivation of the enzyme. The values of koff and kon are measured and Ki * is then calculated.
# The rate of inactivation, kon, of enzymatic activity was determined for the compounds tested by measuring the enzyme activity of an aliquot of the respective enzyme as a function of time after addition of the test compound. […] The rate of inactivation is then equal to [formula] where [I] is the concentration of the inhibiting compound.
# The reactivation constant, koff, is similarly determined and the inhibition constant, Ki *, is then calculated as
SMILES,Ki [nM],kon [1] [M⁻¹ s⁻¹],kon [M⁻¹ s⁻¹],Elastase 10^-3 × kon [1] [M^-1 sec^-1]
"O=C1c2c(Cl)cccc2S(=O)(=O)N1CSc1nnnn1-c1ccccc1 [Example 4, 4-chloro-2-(1-phenyl-1H-tetrazol-5-ylthiomethyl)saccharin]",12,20000,–,–
"O=C1c2ccccc2S(=O)(=O)N1CSc1nnnn1C1CCCCC1 [Example 9, 2-(1-cyclohexyl-1H-tetrazol-5-ylthiomethyl)saccharin]",–,2500,–,–
"O=C1c2cc([N+](=O)[O-])ccc2S(=O)(=O)N1CSc1nnnn1-c1ccccc1 [Example 11, 5-nitro-2-(1-phenyl-1H-tetrazol-5-ylthiomethyl)saccharin]",–,–,4600,–
"O=C1c2ccccc2S(=O)(=O)N1COc1ccc([N+](=O)[O-])cc1 [Example 15, 2-(4-nitrophenoxymethyl)saccharin]",69,3200,–,–
"O=C(CC(c1ccccc1)c1ccccc1)Nc1ccc2c(c1)C(=O)N(CSc1nnnn1-c1ccccc1)S2(=O)=O [Example 16, 5-(3,3-diphenylpropionamido)-2-(1-phenyl-1H-tetrazol-5-ylthiomethyl)saccharin]",2600,–,–,–
"COC(=O)C(Sc1nnnn1-c1ccccc1)N1C(=O)c2ccccc2S1(=O)=O (stereo not drawn) [Example 17, methyl 2-(1-phenyl-1H-tetrazol-5-ylthio)-2-(2-saccharinyl)acetate]",270,2900,–,–
"O=C1c2ccccc2S(=O)(=O)N1C(Sc1nnnn1-c1ccccc1)c1ccccc1 (stereo not drawn) [Example 19, 2-(1-phenyl-1H-tetrazol-5-ylthiophenylmethyl)saccharin]",8500,–,–,–
"O=C1c2c(Br)cccc2S(=O)(=O)N1CCl [Example 21, 2-chloromethyl-4-bromosaccharin]",0.5,950000,–,–
"COc1cccc2c1C(=O)N(CCl)S2(=O)=O [Example 22A, 2-chloromethyl-4-methoxysaccharin]",6,12400,–,–
"CCC(C)c1cccc2c1C(=O)N(CCl)S2(=O)=O (stereo not drawn) [Example 22B, 2-chloromethyl-4-sec.-butylsaccharin]",90,2400,–,–
"CCC(CC)c1cccc2c1C(=O)N(CCl)S2(=O)=O [Example 22C, 2-chloromethyl-4-(3-pentyl) saccharin]",0.4,105000,–,–
O=C1c2cccc(Cl)c2S(=O)(=O)N1CCl [Example 22D],1.3,75800,–,–
"CC(C)c1cccc2c1C(=O)N(CCl)S2(=O)=O [Example 22E, 2-chloromethyl-4-isopropylsaccharin]",91,4700,–,–
COc1ccc2c(c1OC)C(=O)N(CCl)S2(=O)=O [Example 22F],6.5,20000,–,–
COC(=O)c1cccc2c1C(=O)N(CCl)S2(=O)=O [Example 22G],50,3000,–,–
CCOc1cccc2c1C(=O)N(CCl)S2(=O)=O [Example 22H],1.2,25000,–,–
"O=C1c2ccccc2S(=O)(=O)N1CF [Example 27, 2-fluoromethylsaccharin]",13,7500,–,–
CCc1cccc2c1C(=O)N(CCl)S2(=O)=O [Example 28],2.5,–,–,50.7
"Cc1ccc(C)c2c1C(=O)N(CCl)S2(=O)=O [Example 29, 2-chloromethyl-4,7-dimethylsaccharin]",120,1100,–,–
O=C(O)c1cccc(-n2nnn(CN3C(=O)c4ccccc4S3(=O)=O)c2=S)c1 [Example 30-O],2000,30,–,–
Cc1nnc(SCN2C(=O)c3ccccc3S2(=O)=O)s1 [Example 30AB],23,2800,–,–

SMILES,Ki [nM],kon [1] [M⁻¹ s⁻¹],kon [M⁻¹ s⁻¹],Elastase 10^-3 × kon [1] [M^-1 sec^-1]
Cn1cnnc1SCN1C(=O)c2ccccc2S1(=O)=O [Example 30AC],–,190,–,–
CSc1nn(CN2C(=O)c3ccccc3S2(=O)=O)c(=S)s1 [Example 30AD],11.6,7000,–,–
O=C1c2ccccc2S(=O)(=O)N1CSc1nc(-c2ccccc2)ns1 [Example 30AF],12.5,–,–,4.2
O=C1c2ccccc2S(=O)(=O)N1CSc1nnc(S)s1 [Example 30AH],60,1100,–,–
CC(C)c1cccc2c1C(=O)N(Cn1nnn(-c3ccccc3)c1=S)S2(=O)=O [Example 30AJ],15.5,1800,–,–
Cc1nnc(SCN2C(=O)c3c(C(C)C)cccc3S2(=O)=O)s1 [Example 30AM],4.5,12300,–,–
CC(C)c1cccc2c1C(=O)N(CSc1nnnn1C)S2(=O)=O [Example 30AN],30,19000,–,–
CCOC(=O)Cn1nnnc1SCN1C(=O)c2ccccc2S1(=O)=O [Example 30AP],51,1300,–,–
O=C1c2ccccc2S(=O)(=O)N1CSc1nnnn1CCO [Example 30AQ],260,900,–,–
COC(=O)c1cn(-c2ccccc2)c(SCN2C(=O)c3ccccc3S2(=O)=O)n1 [Example 30AR],153,300,–,–
CN(C)C(=O)Cn1nnnc1SCN1C(=O)c2ccccc2S1(=O)=O [Example 30AS],40,1700,–,–
CCOc1cccc2c1C(=O)N(CSc1nnnn1-c1ccccc1)S2(=O)=O [Example 30AT],–,45300,–,–
CC(C)Oc1cccc2c1C(=O)N(CSc1nnnn1-c1ccccc1)S2(=O)=O [Example 30AU],–,8900,–,–
CCc1cccc2c1C(=O)N(CSc1nnnn1CC(=O)N(C)C)S2(=O)=O [Example 30AV],15,7600,–,–
CC(C)c1cccc2c1C(=O)N(CSc1nnnn1CC(=O)N(C)C)S2(=O)=O [Example 30AW],1,30000,–,–
CCOc1cccc2c1C(=O)N(CSc1nnnn1CC(=O)N(C)C)S2(=O)=O [Example 30AX],16,7500,–,–
CC(C)(C)CC(C)(C)c1ccc2c(c1)C(=O)N(CSc1nnnn1-c1ccccc1)S2(=O)=O [Example 30A],10500,–,–,–
O=C1c2c(-c3ccccc3)cccc2S(=O)(=O)N1CSc1nnnn1-c1ccccc1 [Example 30BC],–,5800,–,–
O=C1c2ccccc2S(=O)(=O)N1CSc1nc2ccc([N+](=O)[O-])cc2s1 [Example 30BD],8,11700,–,–
O=C1c2ccccc2S(=O)(=O)N1CSc1nc2ccc([N+](=O)[O-])cc2o1 [Example 30BE],250,7400,–,–
O=C1c2ccccc2C(=O)N1CN1C(=O)c2ccccc2S1(=O)=O [Example 30BF],40000,20,–,–

SMILES,Ki [nM],kon [1] [M⁻¹ s⁻¹],kon [M⁻¹ s⁻¹],Elastase 10^-3 × kon [1] [M^-1 sec^-1]
O=C1c2ccccc2S(=O)(=O)N1CSc1nnnn1CCN1CCOCC1 [Example 30BG],50,1700,–,–
CC(C)c1cccc2c1C(=O)N(CSc1nnnn1CCN1CCOCC1)S2(=O)=O [Example 30BI],0.5,39000,–,–
Nc1cccc(-n2nnnc2SCN2C(=O)c3ccccc3S2(=O)=O)c1 [Example 30C],17,2500,–,–
O=C(O)c1ccc(-n2nnnc2SCN2C(=O)c3ccccc3S2(=O)=O)cc1 [Example 30D],85,800,–,–
COC(=O)c1cc(C(=O)OC)cc(-n2nnnc2SCN2C(=O)c3ccccc3S2(=O)=O)c1 [Example 30E],12.7,7300,–,–
O=C1C=Cc2ccc(OCN3C(=O)c4ccccc4S3(=O)=O)c3cccc1c23 [Example 30G],7.7,9300,–,–
O=C1c2ccccc2S(=O)(=O)N1CSc1nncn1-c1ccccc1 [Example 30I],650,450,–,–
CCc1cccc2c1C(=O)N(CSc1nnnn1CCN1CCOCC1)S2(=O)=O [Example 30J],10,14000,–,–
CCOc1ccc(OCCOCCOC)c2c1C(=O)N(CSc1nnnn1-c1ccccc1)S2(=O)=O [Example 30L],7.6,6500,–,–
COCCOCCOc1ccc(OC)c2c1S(=O)(=O)N(CSc1nnnn1-c1ccccc1)C2=O [Example 30M],10,1000,–,–
O=C1c2ccccc2S(=O)(=O)N1CSc1nnc2ccccn12 [Example 30N],220,250,–,–
O=C1c2ccccc2S(=O)(=O)N1CSc1nnnn1-c1cccnc1 [Example 30Q],70.4,1380,–,–
O=C1c2ccccc2S(=O)(=O)N1Cn1nnn(-c2cccnc2)c1=S [Example 30R],36,2300,–,–
Cn1nnc(=S)n1CN1C(=O)c2ccccc2S1(=O)=O [Example 30W],80,–,–,1.5
Cn1nnc(SCN2C(=O)c3ccccc3S2(=O)=O)n1 [Example 30X],143,550,–,–
CC(C)c1cccc2c1C(=O)N(Cn1nnn(-c3cccnc3)c1=S)S2(=O)=O [Example 30Z],0.5,70000,–,–
O=C1c2ccc([N+](=O)[O-])cc2S(=O)(=O)N1CSc1nnnn1-c1ccccc1 [Example 31C],300,3400,–,–
"O=C1c2ccccc2S(=O)(=O)N1CS(=O)(=O)c1c(Cl)cccc1Cl [Example 32A, 2-(2,6-dichlorophenylsulfonylmethyl)saccharin]",145,600,–,–
"O=C1c2ccccc2S(=O)(=O)N1CSc1nnc(SCCN2CCOCC2)s1 [Example 33, 2-(5-[2-(4-morpholinyl)ethylthio]-1,3,4-thiadiazol-2-ylthiomethyl)saccharin]",12,–,3600,–
"CN(C)CCSc1nnc(SCN2C(=O)c3ccccc3S2(=O)=O)s1 [Example 33B, 2-(5-[2-(N,N-dimethylamino)-ethylthio]-1,3,4-thiadiazol-2-ylthiomethyl)saccharin]",18,4000,–,–
"O=C1c2ccccc2S(=O)(=O)N1CSc1nnc(SCCN2CCCCC2)s1 [Example 33C, 2-(5-[2-(1-piperidinyl)-ethylthio]-1,3,4-thiadiazol-2-ylthiomethyl)saccharin]",350,200,–,–
